“Also recorded” adds a separate entry of the source.
What was measured:
[1] = system: frataxin deficient fibroblasts (Friedreich's ataxia patient, GM03665); assay type: cell-based
[2] = system: HepG2 human hepatocarcinoma cells; experiment: Rotenone ATP Assay (Complex I by-pass); assay type: cell-based; settings: summary statements also cover the Oxygraph assay
Experimental: This assay has been adapted from Haefeli R H, Erb M, Gemperli A C, Robay D, Courdier Fruh I, et al. (2011) NQO1-Dependent Redox Cycling of Idebenone: Effects on Cellular Redox Potential and Energy Levels. PLOS ONE 6 (3): e17963. HepG2 human hepatocarcinoma cells were co-incubated with the electron transport chain Complex I toxin rotenone+/−compounds of interest and the corresponding effect on ATP synthesis was measured with a bioluminescent substrate.
In brief, HepG2 cells were plated at 25,000 cells per well in low glucose (1 gram/Liter) DMEM medium+10% fetal calf serum and incubated for 24 hours. The following day, the media was decanted and subsequently replaced with glucose free/serum free DMEM which has been supplemented with 50 micromolar rotenone and compound of interest. Serial dilutions of compound were prepared in 3× dilutions beginning at 25 micromolar. The cells were incubated for 60 minutes in a humidified tissue culture incubator. Following incubation, ATP levels were quantified via bioluminescent assay (Promega […] Glo Assay kit) and readings were captured on a standard microplate reader.
ATP bioluminescence is plotted versus the log of compound of interest and data were used to generate EC50 values. Curve fitting was performed using a sigmoidal dose response curve fit function (GraphPad Prism software).
Robustness of curve fit was assessed as a quality control measure, with an R squared value of at least 0.80 being required for a successful curve fit. Compounds of interest showing an increase in ATP bioluminescence relative to vehicle control were verified in an independent biological replicate of n=3 technical replicates per dose.
This assay is a direct measure of the ability of compounds of interest to restore ATP production under conditions of inhibition of Complex I of the mitochondrial electron transport chain. As the majority of ATP produced via the electron transport chain is thought to derive from Complex I activity, significant impairment in Complex I function has dire biological consequences. Of note, Complex I mutations are thought to drive pathophysiology in multiple mitochondrial diseases, including Leigh syndrome and Leber's Hereditary Optic Neuropathy (LHON), while diminished Complex I activity and the resultant attenuation of ATP production has been shown in neurodegenerative diseases, including Friedreich's Ataxia, Parkinson's Disease and Huntington's Disease.

[3] = system: GM03665 cells (fibroblasts from a subject with Friedreich's ataxia); experiment: RSL3 Toxicity Assay (RSL3 Assay); assay type: cell-based, human
Experimental: In brief, GM03665 cells (Coriell Institute) were seeded in 96-well plates (Sarstedt) in DMEM cell culture media containing 10% Fetal Bovine serum and 1% Penicillin-Streptomycin (Pen-Strep) antibiotic mix at the amount of 2×10^4/mL (100 μL or 2×10^3 cells per well). Cells were left to rest overnight at 37° C. in a humidified atmosphere with 5% CO2 to allow attachment of the cells to the culture plate. Test compounds were prepared as DMSO stocks (10 mM) and were serially diluted in cell culture media to obtain 2× working solutions. Cell media was discarded and replaced by 50 μL of test compound solutions or cell media with vehicle for control wells. Within 15 minutes, 2× working solution (4 μM) of 1S,3R-RSL3 (CAS #1219810-16-8, Sigma-Aldrich) (diluted from 5 mM DMSO stock in cell culture media) was added. Final reaction volume was 100 μL and final DMSO concentration in reaction was kept below 0.2% (v/v) and equal in all wells. Final RSL3 concentration was 2 μM and test compound final concentrations in reaction were up to 1000 nM. After 24 hours of incubation cell viability was assessed by MTT test. MTT (Sigma-Aldrich) solution 1 mg/mL in 1×PBS (pH=7,4) was prepared 1 hour before the assay and filtered through Filtropur S 0.2 filters (Sarstedt). Cell media with test compounds was discarded and 100 μL of MTT solution was added to cells. The plates were incubated for 2 hours at +37° C. Thereafter, the MTT solution was removed and 100 μL of isopropanol was added to dissolve sediment. Absorption at 570 and 650 nm was measured using Hidex Sense microplate reader.

[4] = system: intact HepG2 cells; experiment: Rotenone Oxygraph Assay (high-resolution respirometry); assay type: cell-based, human; settings: 1 μM rotenone, 10 μM compound
Experimental: The Oxygraph-2k (O2k, OROBOROS INSTRUMENTS, Austria) was used for measurements of respiration of intact cells. The respirometry was performed in Dulbecco's Modified Eagle Medium (DMEM) high glucose without supplements. All experiments were performed at 37° C.
HepG2 cells (ATCC collection code HB-8065™) were cultured in 10 cm^2 culture dishes in DMEM high glucose medium supplemented with 10% fetal bovine serum (FBS) and 100 units/mL penicillin and 100 μg/mL streptomycin until approximately 90% confluence was reached. Immediately prior to performing the respirometric assay, the cells were washed with media without FBS, trypsinized and resuspended in DMEM high glucose without FBS.
The final concentration of intact cells in the O2k-chamber was 0.5.10^6/mL. After stabilization of respiration, the Complex I inhibitor, rotenone, at 1 μM final concentration was added to inhibit electron flux via Complex I. Then, compound to be tested was added at 10 μM final concentration, and the change in respiration rate of intact cells was monitored.

[5] = system: Nrf-2 responsive genes; experiment: Nrf-2 Activation Assay (Nrf-2 Assay); assay type: cell-based, human; settings: FIG. 7; 1 μM, 24 hours
Experimental: This assay was developed internally and was designed to determine if the novel test compounds disclosed herein active Nrf-2 and thereby promote resolution of inflammation by the mechanism believed to be responsible for the activity of omaveloxolone.
Briefly, GM03665 Eriedreich Ataxia patient fibroblasts were grown in 12 Well Plates (TC Cell+F) (Sarstedt, Nümbrecht Germany), at a density of 12×10^4 cells/per well in DMEM/F12 (Gibco, ThermoFisher Scientific, Waltham, MA, USA) cell media supplemented with 10% FBS and 1% Pen/Strep. Cells were left to rest overnight at 37° C. in a humidified atmosphere with 5% CO2 to allow attachment of the cells to the culture plate. Before continuing assay visual inspection of each well was done by light microscopy to detect any possible bacterial and fungal contamination. […] After incubation, cell media was removed and total RNA from the cells was isolated using E.Z.N.A.® Total RNA Kit I (Omega Bio-tek, Norcross, Georgia, USA) spin columns, and first-strand cDNA synthesis was carried out using a High Capacity cDNA Reverse Transcription Kit (Applied Biosystems™, Foster City, CA) following the manufacturer's instructions. qPCR analysis of gene expression was performed by mixing SYBR® Green Master Mix (Applied Biosystems™) with synthesized cDNA and forward and reverse primers. […] (60 cycles), and 95° C. for 60 seconds, followed by melt curve analysis at 72-95° C., 0.3° C./sec. The relative expression levels for each gene were calculated with the ΔΔCt method and normalized to the expression of REEP5 and SNRPD3 genes.

[6] = target: lipoxygenase-15 enzyme (Glycine max (Soybean) (Glycine hispida), UniProt P08170); experiment: Lipoxygenase-15 Assay (LO-15 Assay); assay type: biochemical; settings: reduced forms tested

CC1=C(C)C(=O)C(CC[C@](C)(O)CCCCCCCCC(F)(F)F)=C(C)C1=O [Compound N, (R)-2,3,5-trimethyl-6-(12,12,12-trifluoro-3-hydroxy-3-methyldodecyl)cyclo-hexa-2,5-diene-1,4-dione]
protection from BSO induced cell death / ferroptosis, in words [1]: possess both activities; also recorded: able to prevent ferroptotic cell death; also recorded: active | Complex I by-pass activity / restoring ATP production, in words [2]: possess both activities | activity in the RSL3 Assay, in words [3]: active; also recorded: able to prevent ferroptotic cell death | Rotenone Oxygraph Assay % Increase (Table 7) [4]: 44.8 +/− 10.3% | activation of Nrf-2 responsive genes / pathway, in words [5]: do not activate | lipoxygenase-15 inhibition, in words [6]: effective inhibitors

Source: patent US20240400529A1, “COMPOSITIONS AND METHODS FOR THE PREVENTION AND/OR TREATMENT OF MITOCHONDRIAL DISEASE, INCLUDING FRIEDREICH'S ATAXIA” (Stealth BioTherapeutics Inc., priority 2019, published 2024)
